Several values for one entry are separate records, joined by “and”; a condition that tells them apart may be missing. Identical values can stand only once. Activity calls are given as the source filed them. The rule behind the calls is not given here.
Test system: rodent lifetime carcinogenesis bioassay, tumor incidence TD50
Assay: chronic cancer bioassays in animals – CPDB, compiled studies (AID 1745844)
[1] = rat, strain Sprague-Dawley, females, by gavage, site: liver, lesion: hepatocellular carcinoma, dosed 52 weeks, study length 65 weeks

## Brc1cc(Br)c(-c2cc(Br)c(Br)cc2Br)cc1Br
mouse, strain B6C3F1, females, by gavage, site: any site (literature study), lesion: several types, types named in the paper, dosed 26 weeks, study length 131 weeks
  TD50: 0.338 mg/kg/day
mouse, strain B6C3F1, females, by gavage, site: liver, lesion: hepatocellular adenoma + hepatocellular carcinoma + neoplastic nodule, dosed 26 weeks, study length 131 weeks
  TD50: 0.402 mg/kg/day
mouse, strain B6C3F1, females, by gavage, site: liver, lesion: hepatocellular carcinoma, dosed 26 weeks, study length 131 weeks
  TD50: 0.534 mg/kg/day
mouse, strain B6C3F1, females, by gavage, site: lung, lesion: alveolar/bronchiolar adenoma + alveolar/bronchiolar carcinoma, dosed 26 weeks, study length 131 weeks
  TD50: 0.915 mg/kg/day
mouse, strain B6C3F1, females, in feed, site: any site (literature study), lesion: several types, types named in the paper, dosed 105 weeks, study length 105 weeks
  TD50: 0.362 mg/kg/day
mouse, strain B6C3F1, females, in feed, site: liver, lesion: hepatocellular adenoma + hepatoblastoma + hepatocellular carcinoma, dosed 105 weeks, study length 105 weeks
  TD50: 0.307 mg/kg/day
mouse, strain B6C3F1, females, in feed, site: liver, lesion: hepatocellular adenoma + hepatocellular carcinoma, dosed 105 weeks, study length 105 weeks
  TD50: 0.307 mg/kg/day
mouse, strain B6C3F1, females, in feed, site: liver, lesion: hepatocellular adenoma, dosed 105 weeks, study length 105 weeks
  TD50: 0.367 mg/kg/day
mouse, strain B6C3F1, females, in feed, site: liver, lesion: hepatocellular carcinoma, dosed 105 weeks, study length 105 weeks
  TD50: 0.588 mg/kg/day
mouse, strain B6C3F1, females, in feed, site: lung, lesion: alveolar/bronchiolar adenoma + alveolar/bronchiolar carcinoma, dosed 105 weeks, study length 105 weeks
  TD50: 19.1 mg/kg/day
mouse, strain B6C3F1, males, by gavage, site: any site (literature study), lesion: several types, types named in the paper, dosed 26 weeks, study length 131 weeks
  TD50: 0.418 mg/kg/day
mouse, strain B6C3F1, males, by gavage, site: liver, lesion: hepatocellular adenoma + hepatocellular carcinoma + neoplastic nodule, dosed 26 weeks, study length 131 weeks
  TD50: 0.285 mg/kg/day
mouse, strain B6C3F1, males, by gavage, site: liver, lesion: hepatocellular carcinoma, dosed 26 weeks, study length 131 weeks
  TD50: 0.381 mg/kg/day
mouse, strain B6C3F1, males, in feed, site: any site (literature study), lesion: several types, types named in the paper, dosed 105 weeks, study length 105 weeks
  TD50: 0.349 mg/kg/day
mouse, strain B6C3F1, males, in feed, site: liver, lesion: hepatocellular adenoma + hepatoblastoma + hepatocellular carcinoma, dosed 105 weeks, study length 105 weeks
  TD50: 0.262 mg/kg/day
mouse, strain B6C3F1, males, in feed, site: liver, lesion: hepatocellular adenoma + hepatocellular carcinoma, dosed 105 weeks, study length 105 weeks
  TD50: 0.262 mg/kg/day
mouse, strain B6C3F1, males, in feed, site: liver, lesion: hepatocellular adenoma, dosed 105 weeks, study length 105 weeks
  TD50: 0.233 mg/kg/day
mouse, strain B6C3F1, males, in feed, site: liver, lesion: hepatocellular carcinoma, dosed 105 weeks, study length 105 weeks
  TD50: 0.54 mg/kg/day
mouse, strain B6C3F1, males, in feed, site: lung, lesion: alveolar/bronchiolar adenoma + alveolar/bronchiolar carcinoma, dosed 105 weeks, study length 105 weeks
  TD50: 54.9 mg/kg/day
rat, strain Fischer 344, females, by gavage, site: any site (literature study), lesion: several types, types named in the paper, dosed 25 weeks, study length 124 weeks
  TD50: 0.365 mg/kg/day
rat, strain Fischer 344, females, by gavage, site: liver, lesion: cholangiocarcinoma + hepatocellular carcinoma + neoplastic nodule, dosed 25 weeks, study length 124 weeks
  TD50: 0.596 mg/kg/day
rat, strain Fischer 344, females, by gavage, site: liver, lesion: cholangiocarcinoma, dosed 25 weeks, study length 124 weeks
  TD50: 2.1 mg/kg/day
rat, strain Fischer 344, females, by gavage, site: liver, lesion: hepatocellular adenoma + hepatocellular carcinoma + neoplastic nodule, dosed 25 weeks, study length 124 weeks
  TD50: 0.645 mg/kg/day
rat, strain Fischer 344, females, by gavage, site: liver, lesion: hepatocellular carcinoma, dosed 25 weeks, study length 124 weeks
  TD50: 1.65 mg/kg/day
rat, strain Fischer 344, females, by gavage, site: liver, lesion: neoplastic nodule, dosed 25 weeks, study length 124 weeks
  TD50: 1.1 mg/kg/day
rat, strain Fischer 344, females, in feed, site: any site (literature study), lesion: several types, types named in the paper, dosed 104 weeks, study length 104 weeks
  TD50: 2.38 mg/kg/day
rat, strain Fischer 344, females, in feed, site: liver, lesion: hepatocellular adenoma + hepatoblastoma + hepatocellular carcinoma, dosed 104 weeks, study length 104 weeks
  TD50: 0.656 mg/kg/day
rat, strain Fischer 344, females, in feed, site: liver, lesion: hepatocellular adenoma + hepatocellular carcinoma, dosed 104 weeks, study length 104 weeks
  TD50: 0.656 mg/kg/day
rat, strain Fischer 344, females, in feed, site: liver, lesion: hepatocellular adenoma, dosed 104 weeks, study length 104 weeks
  TD50: 0.7 mg/kg/day
rat, strain Fischer 344, females, in feed, site: liver, lesion: hepatocellular carcinoma, dosed 104 weeks, study length 104 weeks
  TD50: 8.22 mg/kg/day
rat, strain Fischer 344, females, in feed, site: mammary gland, lesion: fibroadenoma, dosed 104 weeks, study length 104 weeks
  TD50: 1.59 mg/kg/day
rat, strain Fischer 344, males, by gavage, site: any site (literature study), lesion: several types, types named in the paper, dosed 25 weeks, study length 118 weeks
  TD50: 0.0645 mg/kg/day
rat, strain Fischer 344, males, by gavage, site: liver, lesion: cholangiocarcinoma + hepatocellular carcinoma + neoplastic nodule, dosed 25 weeks, study length 118 weeks
  TD50: 0.148 mg/kg/day
rat, strain Fischer 344, males, by gavage, site: liver, lesion: cholangiocarcinoma, dosed 25 weeks, study length 118 weeks
  TD50: 14.4 mg/kg/day
rat, strain Fischer 344, males, by gavage, site: liver, lesion: hepatocellular adenoma + hepatocellular carcinoma + neoplastic nodule, dosed 25 weeks, study length 118 weeks
  TD50: 0.151 mg/kg/day
rat, strain Fischer 344, males, by gavage, site: liver, lesion: hepatocellular carcinoma, dosed 25 weeks, study length 118 weeks
  TD50: 1.3 mg/kg/day
rat, strain Fischer 344, males, by gavage, site: liver, lesion: neoplastic nodule, dosed 25 weeks, study length 118 weeks
  TD50: 0.168 mg/kg/day
rat, strain Fischer 344, males, in feed, site: any site (literature study), lesion: several types, types named in the paper, dosed 104 weeks, study length 104 weeks
  TD50: 1.56 mg/kg/day
rat, strain Fischer 344, males, in feed, site: liver, lesion: hepatocellular adenoma + hepatoblastoma + hepatocellular carcinoma, dosed 104 weeks, study length 104 weeks
  TD50: 0.408 mg/kg/day
rat, strain Fischer 344, males, in feed, site: liver, lesion: hepatocellular adenoma + hepatocellular carcinoma, dosed 104 weeks, study length 104 weeks
  TD50: 0.408 mg/kg/day
rat, strain Fischer 344, males, in feed, site: liver, lesion: hepatocellular adenoma, dosed 104 weeks, study length 104 weeks
  TD50: 0.461 mg/kg/day
rat, strain Fischer 344, males, in feed, site: liver, lesion: hepatocellular carcinoma, dosed 104 weeks, study length 104 weeks
  TD50: 1.19 mg/kg/day

## CC/C(=C(\c1ccccc1)c1ccc(OCCN(C)C)cc1)c1ccccc1
mouse, strain AP Alderly Park, females, several routes, site: ovary, lesion: granulosa-cell adenoma, dosed 65 weeks, study length 65 weeks
  TD50: 3 mg/kg/day
mouse, strain AP Alderly Park, males, several routes, site: testis, lesion: interstitial-cell adenoma, dosed 65 weeks, study length 65 weeks
  TD50: 8.18 mg/kg/day
mouse, strain AP Alderly Park, males, several routes, site: testis, lesion: interstitial-cell tumor, dosed 56 weeks, study length 56 weeks
  TD50: 9.8 mg/kg/day
mouse, strain B6C3F1, females, in feed, site: liver, lesion: hepatocellular adenoma, dosed 104 weeks, study length 104 weeks
  TD50: 101 mg/kg/day (inactive)
mouse, strain B6C3F1, females, in feed, site: lung, lesion: alveolar-cell carcinoma, dosed 104 weeks, study length 104 weeks
  carcinogen call: negative (inactive)
mouse, strain B6C3F1, females, in feed, site: uterus, lesion: leiomyoma, dosed 104 weeks, study length 104 weeks
  carcinogen call: negative (inactive)
mouse, strain C57BL/6, females, in feed, site: liver, lesion: hepatocellular carcinoma, dosed 52 weeks, study length 52 weeks
  carcinogen call: negative (inactive)
mouse, strain DBA/2, females, in feed, site: liver, lesion: hepatocellular carcinoma, dosed 52 weeks, study length 52 weeks
  carcinogen call: negative (inactive)
rat, strain Alpk:APfSD, females, by gavage, site: liver, lesion: biliary cystadenoma, dosed 88 weeks, study length 107 weeks
  TD50: 706 mg/kg/day
rat, strain Alpk:APfSD, females, by gavage, site: liver, lesion: cholangioma, dosed 88 weeks, study length 107 weeks
  TD50: 2260 mg/kg/day
rat, strain Alpk:APfSD, females, by gavage, site: liver, lesion: hepatocellular adenoma, dosed 88 weeks, study length 107 weeks
  TD50: 135 mg/kg/day
rat, strain Alpk:APfSD, females, by gavage, site: liver, lesion: hepatocellular carcinoma, dosed 88 weeks, study length 107 weeks
  TD50: 17 mg/kg/day
rat, strain Alpk:APfSD, females, by gavage, site: liver, lesion: hepatocholangiocarcinoma, dosed 88 weeks, study length 107 weeks
  TD50: 241 mg/kg/day
rat, strain Alpk:APfSD, males, by gavage, site: liver, lesion: biliary cystadenoma, dosed 88 weeks, study length 107 weeks
  TD50: 1100 mg/kg/day
rat, strain Alpk:APfSD, males, by gavage, site: liver, lesion: hepatocellular adenoma, dosed 88 weeks, study length 107 weeks
  TD50: 47.9 mg/kg/day
rat, strain Alpk:APfSD, males, by gavage, site: liver, lesion: hepatocellular carcinoma, dosed 88 weeks, study length 107 weeks
  TD50: 18.7 mg/kg/day
rat, strain Alpk:APfSD, males, by gavage, site: liver, lesion: hepatocholangiocarcinoma, dosed 88 weeks, study length 107 weeks
  TD50: 306 mg/kg/day
rat, strain Charles River CD (Sprague-Dawley), females, by gavage, site: liver, lesion: hepatocellular adenoma, dosed 51 weeks, study length 65 weeks
  TD50: 7.77 mg/kg/day
rat, strain Charles River CD (Sprague-Dawley), females, by gavage, site: liver, lesion: hepatocellular adenoma, dosed 52 weeks, study length 65 weeks
  TD50: 4.35 mg/kg/day
rat, strain Charles River CD (Sprague-Dawley), females, by gavage, site: liver, lesion: hepatocellular carcinoma, dosed 51 weeks, study length 65 weeks
  TD50: 7.77 mg/kg/day
rat, strain Charles River CD (Sprague-Dawley), females, by gavage, site: liver, lesion: hepatocellular carcinoma, dosed 52 weeks, study length 52 weeks
  TD50: 2.12 mg/kg/day and 10.3 mg/kg/day
rat, strain Charles River CD (Sprague-Dawley), females, by gavage, site: liver, lesion: hepatocellular carcinoma, dosed 52 weeks, study length 65 weeks
  TD50: 4.62 mg/kg/day
rat, strain Charles River CD (Sprague-Dawley), females, by gavage, site: liver, lesion: several types, types named in the paper, dosed 52 weeks, study length 52 weeks
  TD50: 1.44 mg/kg/day
rat, strain Charles River CD (Sprague-Dawley), females, by gavage, site: liver, lesion: several types, types named in the paper, dosed 52 weeks, study length 65 weeks
  TD50: 3.86 mg/kg/day
rat, strain Fischer 344/Tox, females, in feed, site: liver, lesion: hepatocellular carcinoma, dosed 86 weeks, study length 86 weeks
  TD50: 4.18 mg/kg/day
rat, strain Lewis, females, in feed, site: liver, lesion: hepatocellular carcinoma, dosed 48 weeks, study length 48 weeks
  TD50: 1.38 mg/kg/day
rat, strain Sprague-Dawley, females, by gavage, site: any site (literature study), lesion: malignant tumor, dosed 167 weeks, study length 167 weeks
  TD50: 88.7 mg/kg/day
rat, strain Sprague-Dawley, females, by gavage, site: liver, lesion: hepatocellular adenoma, dosed 167 weeks, study length 167 weeks
  TD50: 497 mg/kg/day
rat, strain Sprague-Dawley, females, by gavage, site: liver, lesion: hepatocellular carcinoma, dosed 52 weeks, study length 52 weeks
  TD50: 11.8 mg/kg/day and 7.56 mg/kg/day and 4.79 mg/kg/day
[1]
  TD50: 18.9 mg/kg/day and 6 mg/kg/day
  carcinogen call: positive
rat, strain Sprague-Dawley, females, by gavage, site: liver, lesion: hepatocellular carcinoma, dosed 167 weeks, study length 167 weeks
  TD50: 164 mg/kg/day
rat, strain Sprague-Dawley, females, by gavage, site: liver, lesion: several types, types named in the paper, dosed 52 weeks, study length 52 weeks
  carcinogen call: positive
rat, strain Sprague-Dawley, females, by gavage, site: uterus, lesion: fibroma, dosed 167 weeks, study length 167 weeks
  TD50: 247 mg/kg/day
rat, strain Sprague-Dawley, females, by gavage, site: uterus, lesion: sarcoma, dosed 167 weeks, study length 167 weeks
  TD50: 487 mg/kg/day
rat, strain Sprague-Dawley, females, by gavage, site: uterus, lesion: squamous-cell carcinoma, dosed 167 weeks, study length 167 weeks
  TD50: 497 mg/kg/day
rat, strain Sprague-Dawley, females, by gavage, site: vagina, lesion: squamous-cell carcinoma, dosed 167 weeks, study length 167 weeks
  TD50: 497 mg/kg/day
rat, strain Sprague-Dawley, males, by gavage, site: any site (literature study), lesion: malignant tumor, dosed 167 weeks, study length 167 weeks
  TD50: 187 mg/kg/day
rat, strain Sprague-Dawley, males, by gavage, site: liver, lesion: hepatocellular adenoma, dosed 167 weeks, study length 167 weeks
  TD50: 497 mg/kg/day
rat, strain Sprague-Dawley, males, by gavage, site: liver, lesion: hepatocellular carcinoma, dosed 167 weeks, study length 167 weeks
  TD50: 247 mg/kg/day
rat, strain Sprague-Dawley, males, by gavage, site: mammary tissue, wider than the gland, lesion: adenocarcinoma, dosed 167 weeks, study length 167 weeks
  TD50: 247 mg/kg/day
rat, strain Sprague-Dawley, males, by gavage, site: mammary tissue, wider than the gland, lesion: benign tumor, dosed 167 weeks, study length 167 weeks
  TD50: 96.4 mg/kg/day
rat, strain Wistar/LAC-P, females, in feed, site: liver, lesion: hepatocellular carcinoma, dosed 49 weeks, study length 49 weeks
  TD50: 1.36 mg/kg/day
